The values that follow come from PubChem BioAssay (NCI).

Test systems include KM20L2 colon; DLD-1 colon; DMS 273 small cell lung; LXFL 529 NSCLC; XF 498 CNS; RXF-631 renal; SN12K1 renal; P388 leukemia; P388/ADR leukemia.
What all share (assay): NCI tumour cell line growth inhibition, 48 h

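Dose response: 5 concentrations. Exposure: 48 h. Format: 96-well plates. Endpoint: linear interpolation; highest concentration if not reached. Definition used: TGI = concentration required for complete inhibition of growth.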

For `CCNC(C)Cc1ccccc1` (stereo not drawn), the TGI in the assay with KM20L2 colon, with DLD-1 colon, in the assay with DMS 273 small cell lung and with LXFL 529 NSCLC was over 100 µM each time.
As for `CC1(C)CCC[C@@]2(C)C1CCC1(C)C(CCc3ccoc3)/C(=C/OS(=O)(=O)O)CCC12` (stereo partly drawn) (tested in a mixture with another compound), the TGI in the assay with KM20L2 colon, in the assay with DLD-1 colon, with XF 498 CNS, in the assay on DMS 273 small cell lung, in the assay with RXF-631 renal and in the assay with LXFL 529 NSCLC was over 100 µM each time.
On to `OC1[C@H]([C@H]2CCCC[C@@H]2O)CCC[C@@H]1[C@@H]1CCCC[C@H]1O` (stereo partly drawn), for which the TGI in the assay with KM20L2 colon, in the assay with DLD-1 colon, in the assay on XF 498 CNS, in the assay with DMS 273 small cell lung and in the assay on LXFL 529 NSCLC was over 100 µM in each case.
Consider `CC[C@]1(O)C[C@H]2CN(CCc3c([nH]c4ccccc34)[C@@](C(=O)OC)(c3cc4c(cc3OC)N(C=O)[C@H]3[C@@](O)(C(=O)OC)[C@H](OC(C)=O)[C@]5(CC)C=CCN6CC[C@]43[C@@H]65)C2)C1`, for which the TGI turned out to be 0.134 µM with SN12K1 renal; 0.206 µM with KM20L2 colon; 144 µM in the assay on DLD-1 colon; 2.5 µM with XF 498 CNS; 3.13 µM in the assay with DMS 273 small cell lung; 7.83 µM in the assay on P388 leukemia. In addition, the figures for the TGI in the assay with LXFL 529 NSCLC and in the assay with P388/ADR leukemia were 7.81 µM and 35.5 µM, respectively.
Turning to `CCC(C)n1c(C)nc2c1C(=O)c1ccccc1C2=O` (stereo not drawn), the TGI in the assay on KM20L2 colon, with DLD-1 colon, in the assay with XF 498 CNS, in the assay on DMS 273 small cell lung and in the assay with LXFL 529 NSCLC was over 100 µM throughout.
Regarding `CCc1ccc(N=Cc2cc(OC)c(OC)c(OC)c2)cc1`, the TGI in the assay with KM20L2 colon, with DLD-1 colon, with XF 498 CNS, with DMS 273 small cell lung and in the assay with LXFL 529 NSCLC was over 100 µM throughout.
In the case of `Cc1ccccc1C(=O)c1c(O)c2c(c(O)c1Br)CCCC2`, the TGI in the assay on KM20L2 colon was 41.4 µM; in the assay with DLD-1 colon it was 58.9 µM; in the assay on XF 498 CNS, 36.6 µM; with DMS 273 small cell lung, 35.4 µM; in the assay with LXFL 529 NSCLC it was 26.9 µM.
Regarding `C=C(CN(C)C)C(=O)c1ccccc1C`, the TGI was over 100 µM in the assay with KM20L2 colon; 45.8 µM in the assay with DLD-1 colon; over 75.6 µM in the assay with XF 498 CNS; 75.8 µM in the assay on DMS 273 small cell lung; over 100 µM in the assay on RXF-631 renal; 30.7 µM in the assay with LXFL 529 NSCLC.
Turning to `CC(=O)OC12/C(=N/O)CCCCCC1c1ccccc12` (stereo not drawn), the TGI in the assay on KM20L2 colon, in the assay on XF 498 CNS, with DMS 273 small cell lung and in the assay on LXFL 529 NSCLC was over 100 µM each time.
Consider `CN(C)CCOc1cccc2c1C(=O)c1ccccc1C2=O`, for which the TGI in the assay on KM20L2 colon was 46.8 µM; in the assay on DLD-1 colon, 34.5 µM; with XF 498 CNS, 33 µM; in the assay with DMS 273 small cell lung, 21.7 µM; in the assay on LXFL 529 NSCLC, 43.6 µM.
